# Measured values from patent US6448204B1, “Herbicidal 2-aryloxy-4-methyl-6-pyrazol-1-yl-pyridines” (BASF Aktiengesellschaft, priority 1999, dated 2002).
# Tests used:
# Type in all cases: in vivo
# [1] = tested on: Echinochloa crus-galli (ECHCG); assay: Pre-emergence test; settings: 0.400 kg/ha, 3 weeks after treatment
# Description: (§1) To evaluate their herbicidal activity, compounds according to the invention are tested using a representative range of plants: […] The pre-emergence tests involve spraying a liquid formulation of the compound onto the soil in which the seeds of the plant species mentioned above has recently been sown. The soil used in the tests is a prepared horticultural loam. […] In these tests untreated sown soil are used as controls.
# Setaria viridis (SETVI) [2] = assay: Pre-emergence test; settings: 3 weeks after treatment
# Description: as §1
# [3] = tested on: thirteen weed species (broadleaf weeds and grasses); assay: Pre-emergence test, summary over all weeds; settings: for Number of weed species well / sufficiently controlled: out of thirteen species
# Description: as §1
# [4] = tested on: Abutilon theophrasti (ABUTH); assay: Post-emergence test; settings: 2-4 weeks after treatment
# Description: (§2) To evaluate their herbicidal activity, compounds according to the invention are tested using a representative range of plants:
# (§3) These acetone solutions are diluted with water and the resulting formulations applied at dosage levels equivalent of about 0.025 to 0.4 kg per hectare of test compound per pot. After spraying the plants are placed on greenhouse benches and are cared for in the usual manner, commensurate with conventional greenhouse practices. From 2 to 4 weeks after treatment, the seedling plants are examined and rated according to the rating system provided above.
# [5] = tested on: Alopecurus myosuroides (ALOMY); assay: Post-emergence test; settings: 2-4 weeks after treatment
# Description: as §2, §3
# [6] = tested on: Matricaria inodora (MATIN); assay: Post-emergence test; settings: 2-4 weeks after treatment
# Description: as §2, §3
# [7] = tested on: Lolium multiflorum (LOLMU); assay: Post-emergence test; settings: 2-4 weeks after treatment
# Description: as §2, §3
# [8] = tested on: Ipomoea hederacea (IPOHE); assay: Post-emergence test; settings: 2-4 weeks after treatment
# Description: as §2, §3
# Stellaria media (STEME) = assay: Post-emergence test; settings: 2-4 weeks after treatment
# Description: as §2, §3
# Galium aparine (GALAP) = assay: Post-emergence test; settings: 2-4 weeks after treatment
# Description: as §2, §3
# Lamium purpureum (LAMPU) = assay: Post-emergence test; settings: 2-4 weeks after treatment
# Description: as §2, §3
# [9] = tested on: Cassia obtusifolia (CASOB); assay: Post-emergence test; settings: 2-4 weeks after treatment
# Description: as §2, §3
# [10] = tested on: Digitaria sanguinalis (DIGSA); assay: Post-emergence test; settings: 2-4 weeks after treatment
# Description: as §2, §3
# [11] = tested on: Ambrosia artemisifolia (AMBEL); assay: Post-emergence test; settings: 2-4 weeks after treatment
# Description: as §2, §3
# [12] = tested on: Echinochloa crus-galli (ECHCG); assay: Post-emergence test; settings: 2-4 weeks after treatment
# Description: as §2, §3
# Setaria viridis (SETVI) [13] = assay: Post-emergence test; settings: 2-4 weeks after treatment
# Description: as §2, §3
# weed species = assay: Post-emergence test, summary over all weeds
# Description: as §2, §3
compound,measurement,setting,value
Cn1nc(C(F)(F)F)cc1Oc1cccc(-n2ccc(C(F)(F)F)n2)n1 [Comparison],Assessment rating ECHCG (pre-emergence application),[1],7 (7 - Good herbicidal effect)
same,Assessment rating SETVI (pre-emergence application),Setaria viridis (SETVI) [2]; 0.013 kg/ha,2 (2 - Slight effect)
same,Assessment rating SETVI (pre-emergence application),Setaria viridis (SETVI) [2]; 0.025 kg/ha,2 (2 - Slight effect)
same,Assessment rating SETVI (pre-emergence application),Setaria viridis (SETVI) [2]; 0.100 kg/ha,8 (8 - Approaching complete kill)
same,Assessment rating SETVI (pre-emergence application),Setaria viridis (SETVI) [2]; 0.400 kg/ha,9 (9 - Complete kill)
same,Active ingredient required for maize selective weed control relative to the compound of the invention,[3],four times more active ingredient
same,"Herbicidal activity, overall judgement",[3],clearly inferior in activity
same,Rate required to obtain the same level of weed control,[3],0.400 kg/ha
same,Number of weed species well / sufficiently controlled,[3]; 0.100 kg/ha,six out of thirteen species
same,Number of weed species well / sufficiently controlled,[3]; 0.400 kg/ha,ten
same,Rating ABUTH (post-emergence application),[4]; 0.025 kg/ha,3 (3 - Moderate effect)
same,Rating ABUTH (post-emergence application),[4]; 0.100 kg/ha,6 (6 - Herbicidal effect)
same,Rating ABUTH (post-emergence application),[4]; 0.400 kg/ha,8 (8 - Approaching complete kill)
same,Rating ALOMY (post-emergence application),[5]; 0.025 kg/ha,2 (2 - Slight effect)
same,Rating ALOMY (post-emergence application),[5]; 0.100 kg/ha,4 (4 - Injury)
same,Rating ALOMY (post-emergence application),[5]; 0.400 kg/ha,8 (8 - Approaching complete kill)
same,Rating MATIN (post-emergence application),[6]; 0.025 kg/ha,4 (4 - Injury)
same,Rating MATIN (post-emergence application),[6]; 0.100 kg/ha,6 (6 - Herbicidal effect)
same,Rating MATIN (post-emergence application),[6]; 0.400 kg/ha,8 (8 - Approaching complete kill)
same,Rating LOLMU (post-emergence application),[7]; 0.025 kg/ha,4 (4 - Injury)
same,Rating LOLMU (post-emergence application),[7]; 0.100 kg/ha,7 (7 - Good herbicidal effect)
same,Rating LOLMU (post-emergence application),[7]; 0.400 kg/ha,9 (9 - Complete kill)
same,Rating IPOHE (post-emergence application),[8]; 0.025 kg/ha,5 (5 - Definite injury)
same,Rating IPOHE (post-emergence application),[8]; 0.100 kg/ha,9 (9 - Complete kill)
same,Rating IPOHE (post-emergence application),[8]; 0.400 kg/ha,9 (9 - Complete kill)
same,Rating STEME (post-emergence application),Stellaria media (STEME); 0.025 kg/ha,7 (7 - Good herbicidal effect)
same,Rating STEME (post-emergence application),Stellaria media (STEME); 0.100 kg/ha,9 (9 - Complete kill)
same,Rating STEME (post-emergence application),Stellaria media (STEME); 0.400 kg/ha,9 (9 - Complete kill)
same,Rating GALAP (post-emergence application),Galium aparine (GALAP); 0.025 kg/ha,4 (4 - Injury)
same,Rating GALAP (post-emergence application),Galium aparine (GALAP); 0.100 kg/ha,6 (6 - Herbicidal effect)
same,Rating GALAP (post-emergence application),Galium aparine (GALAP); 0.400 kg/ha,8 (8 - Approaching complete kill)
same,Rating LAMPU (post-emergence application),Lamium purpureum (LAMPU); 0.025 kg/ha,7 (7 - Good herbicidal effect)
same,Rating LAMPU (post-emergence application),Lamium purpureum (LAMPU); 0.100 kg/ha,9 (9 - Complete kill)
same,Rating LAMPU (post-emergence application),Lamium purpureum (LAMPU); 0.400 kg/ha,9 (9 - Complete kill)
same,Rating CASOB (post-emergence application),[9]; 0.025 kg/ha,9 (9 - Complete kill)
same,Rating CASOB (post-emergence application),[9]; 0.100 kg/ha,9 (9 - Complete kill)
same,Rating CASOB (post-emergence application),[9]; 0.400 kg/ha,9 (9 - Complete kill)
same,Rating DIGSA (post-emergence application),[10]; 0.025 kg/ha,3 (3 - Moderate effect)
same,Rating DIGSA (post-emergence application),[10]; 0.100 kg/ha,6 (6 - Herbicidal effect)
same,Rating DIGSA (post-emergence application),[10]; 0.400 kg/ha,8 (8 - Approaching complete kill)
same,Rating AMBEL (post-emergence application),[11]; 0.025 kg/ha,2 (2 - Slight effect)
same,Rating AMBEL (post-emergence application),[11]; 0.100 kg/ha,6 (6 - Herbicidal effect)
same,Rating AMBEL (post-emergence application),[11]; 0.400 kg/ha,8 (8 - Approaching complete kill)
same,Rating ECHCG (post-emergence application),[12]; 0.025 kg/ha,4 (4 - Injury)
same,Rating ECHCG (post-emergence application),[12]; 0.100 kg/ha,7 (7 - Good herbicidal effect)
same,Rating ECHCG (post-emergence application),[12]; 0.400 kg/ha,9 (9 - Complete kill)
same,Rating SETVI (post-emergence application),Setaria viridis (SETVI) [13]; 0.025 kg/ha,3 (3 - Moderate effect)
same,Rating SETVI (post-emergence application),Setaria viridis (SETVI) [13]; 0.100 kg/ha,6 (6 - Herbicidal effect)
same,Rating SETVI (post-emergence application),Setaria viridis (SETVI) [13]; 0.400 kg/ha,8 (8 - Approaching complete kill)
same,Number of weed species controlled,weed species; 0.025 kg/ha,one species
same,Number of weed species controlled,weed species; 0.100 kg/ha,four species
